Several values for one entry are separate records, joined by “and”; a condition that tells them apart may be missing. Equal entries are not always repeated. Inconclusive results and toxic doses are left out. The calls were made as follows: active = survival T/C of 150% or more; inactive = T/C below 125% in these data.
Test system: BDF1 mice, P1081 chloroleukemia ip, survival T/C
Test: NCI In Vivo Anticancer Drug Screen. Data for tumor model P1081 Chloroleukemia (intraperitoneal) in B6D2F1 (BDF1) mice
Settings: endpoint: mean survival time, higher = longer survival
Experimental: The antitumor activity of compounds was measured in mice bearing transplantable tumors. Survival or tumor size were measured and the results are expressed as the measurement made in the treated group (T) divided by the measurement made in the vehicle treated control group (C). The tumor model used in this assay is P1081 Chloroleukemia (intraperitoneal) in B6D2F1 (BDF1) mice

[1] = dose: 37.5 mg/kg/injection, schedule: Q01DX010 (ip), vehicle: saline

Measured: T/C

N=C(N)c1ccc(Nc2ccc(C(=N)N)cc2)cc1
inactive: dose: 0.8 mg/kg/injection, schedule: Q01DX Z (ip), vehicle: methylcellulose (MC) 95 % of control | dose: 1.6 mg/kg/injection, schedule: Q01DX Z (ip), vehicle: methylcellulose (MC) 107 % of control | dose: 3.0 mg/kg/injection, schedule: Q01DX010 (ip), vehicle: saline 111 % of control | dose: 3.1 mg/kg/injection, schedule: Q01DX Z (ip), vehicle: methylcellulose (MC) 96 % of control and 103 % of control | dose: 6.0 mg/kg/injection, schedule: Q01DX010 (ip), vehicle: saline 100 % of control | dose: 6.3 mg/kg/injection, schedule: Q01DX Z (ip), vehicle: methylcellulose (MC) 99 % of control | dose: 12.0 mg/kg/injection, schedule: Q01DX010 (ip), vehicle: saline 100 % of control | dose: 12.5 mg/kg/injection, schedule: Q01DX Z (ip), vehicle: methylcellulose (MC) 98 % of control

N=C(N)SCc1c2ccccc2c(CSC(=N)N)c2ccccc12
inactive: dose: 40.0 mg/kg/injection, schedule: Q01DX010 (ip), vehicle: saline 122 % of control
active: dose: 2.5 mg/kg/injection, schedule: Q01DX010 (ip), vehicle: saline 220 % of control | dose: 5.0 mg/kg/injection, schedule: Q01DX010 (ip), vehicle: saline 183 % of control and 210 % of control | dose: 10.0 mg/kg/injection, schedule: Q01DX010 (ip), vehicle: saline 155 % of control and 240 % of control | dose: 20.0 mg/kg/injection, schedule: Q01DX010 (ip), vehicle: saline 172 % of control and 200 % of control

N=[N+]=CC(=O)OCC(N)C(=O)O (stereo not drawn)
active: dose: 3.75 mg/kg/injection, schedule: Q01DX Z (ip), vehicle: saline 160 % of control | dose: 12.5 mg/kg/injection, schedule: Q01DX010 (ip), vehicle: saline 175 % of control
inactive: dose: 0.94 mg/kg/injection, schedule: Q01DX Z (ip), vehicle: saline 113 % of control | dose: 1.25 mg/kg/injection, schedule: Q01DX Z (ip), vehicle: saline 118 % of control and 122 % of control | dose: 2.5 mg/kg/injection, schedule: Q01DX Z (ip), vehicle: saline 107 % of control and 117 % of control | dose: 25.0 mg/kg/injection, schedule: Q01DX010 (ip), vehicle: saline 90 % of control and 95 % of control

CCCCNc1ncnc2c1cnn2C
inactive: dose: 16.0 mg/kg/injection, schedule: Q01DX Z (ip), vehicle: carboxymethylcellulose (CMC) 101 % of control | dose: 31.0 mg/kg/injection, schedule: Q01DX Z (ip), vehicle: carboxymethylcellulose (CMC) 117 % of control | dose: 31.25 mg/kg/injection, schedule: Q01DX010 (ip), vehicle: saline 95 % of control and 100 % of control | dose: 62.5 mg/kg/injection, schedule: Q01DX010 (ip), vehicle: saline 95 % of control and 100 % of control | dose: 62.5 mg/kg/injection, schedule: Q01DX Z (ip), vehicle: carboxymethylcellulose (CMC) 113 % of control | dose: 125.0 mg/kg/injection, schedule: Q01DX010 (ip), vehicle: saline 90 % of control and 105 % of control

CCN(CC)C(=S)S
inactive: dose: 125.0 mg/kg/injection, schedule: Q01DX Z (ip), vehicle: other 99 % of control | dose: 250.0 mg/kg/injection, schedule: Q01DX Z (ip), vehicle: other 96 % of control | dose: 1000.0 mg/kg/injection, schedule: Q01DX Z (ip), vehicle: other 102 % of control

O=c1cnn(C2OC(CO)C(O)C2O)c(=O)[nH]1 (stereo not drawn)
inactive: dose: 62.5 mg/kg/injection, schedule: Q01DX Z (ip), vehicle: water 94 % of control | dose: 125.0 mg/kg/injection, schedule: Q01DX Z (ip), vehicle: water 120 % of control and 90 % of control | dose: 250.0 mg/kg/injection, schedule: Q01DX Z (ip), vehicle: water 116 % of control and 121 % of control | dose: 500.0 mg/kg/injection, schedule: Q01DX Z (ip), vehicle: water 120 % of control | dose: 1000.0 mg/kg/injection, schedule: Q01DX Z (ip), vehicle: water 92 % of control | dose: 1600.0 mg/kg/injection, schedule: Q01DX010 (ip), vehicle: saline 100 % of control

Nc1nc(=S)c2ncn(C3OC(CO)C(O)C3O)c2[nH]1 (stereo not drawn)
inactive: dose: 0.31 mg/kg/injection, schedule: Q01DX Z (ip), vehicle: carboxymethylcellulose (CMC) 117 % of control | dose: 0.63 mg/kg/injection, schedule: Q01DX Z (ip), vehicle: carboxymethylcellulose (CMC) 115 % of control | dose: 5.0 mg/kg/injection, schedule: Q01DX Z (ip), vehicle: carboxymethylcellulose (CMC) 95 % of control | dose: 8.0 mg/kg/injection, schedule: Q01DX010 (ip), vehicle: saline 95 % of control | dose: 16.0 mg/kg/injection, schedule: Q01DX010 (ip), vehicle: saline 90 % of control | dose: 20.0 mg/kg/injection, schedule: Q01DX Z (ip), vehicle: carboxymethylcellulose (CMC) 90 % of control
active: dose: 2.5 mg/kg/injection, schedule: Q01DX Z (ip), vehicle: carboxymethylcellulose (CMC) 158 % of control

S=c1nc[nH]c2nc[nH]c12
inactive: dose: 1.56 mg/kg/injection, schedule: Q01DX Z (ip), vehicle: other 108 % of control | dose: 3.12 mg/kg/injection, schedule: Q01DX Z (ip), vehicle: other 120 % of control | dose: 5.0 mg/kg/injection, schedule: Q01DX010 (ip), vehicle: alkali diluted with saline 110 % of control and 97 % of control | dose: 10.0 mg/kg/injection, schedule: Q01DX010 (ip), vehicle: alkali diluted with saline 105 % of control and 92 % of control | dose: 20.0 mg/kg/injection, schedule: Q01DX010 (ip), vehicle: alkali diluted with saline 106 % of control (2×) and 112 % of control | dose: 40.0 mg/kg/injection, schedule: Q01DX010 (ip), vehicle: alkali diluted with saline 118 % of control and 90 % of control and 103 % of control | dose: 80.0 mg/kg/injection, schedule: Q01DX010 (ip), vehicle: alkali diluted with saline 108 % of control and 116 % of control | dose: 200.0 mg/kg/injection, schedule: Q01DX Z (ip), vehicle: other 91 % of control and 100 % of control

CS(=O)(=O)OCC(O)C(O)COS(C)(=O)=O (stereo not drawn)
active: dose: 1500.0 mg/kg/injection, schedule: Q01DX Z (ip), vehicle: saline 166 % of control | dose: 3000.0 mg/kg/injection, schedule: Q01DX Z (ip), vehicle: saline 173 % of control
inactive: dose: 94.0 mg/kg/injection, schedule: Q01DX Z (ip), vehicle: saline 86 % of control | dose: 188.0 mg/kg/injection, schedule: Q01DX Z (ip), vehicle: saline 107 % of control | dose: 375.0 mg/kg/injection, schedule: Q01DX Z (ip), vehicle: saline 95 % of control | dose: 750.0 mg/kg/injection, schedule: Q01DX Z (ip), vehicle: saline 122 % of control

CC[C@]1(O)C[C@H]2CN(CCc3c([nH]c4ccccc34)[C@@](C(=O)OC)(c3cc4c(cc3OC)N(C=O)[C@H]3[C@@](O)(C(=O)OC)[C@H](OC(C)=O)[C@]5(CC)C=CCN6CC[C@]43[C@@H]65)C2)C1
inactive: dose: 0.06 mg/kg/injection, schedule: Q01DX Z (ip), vehicle: water 112 % of control | dose: 1.0 mg/kg/injection, schedule: Q01DX Z (ip), vehicle: water 118 % of control

C[C@]12CCC(=O)C=C1CC[C@@H]1[C@@H]2CC[C@@]2(C)[C@H]1CC[C@]2(C)O
inactive: dose: 62.5 mg/kg/injection, schedule: Q01DX Z (sc), vehicle: steriod suspending solution 101 % of control | dose: 125.0 mg/kg/injection, schedule: Q01DX Z (sc), vehicle: steriod suspending solution 101 % of control | dose: 250.0 mg/kg/injection, schedule: Q01DX Z (sc), vehicle: steriod suspending solution 106 % of control and 108 % of control | dose: 500.0 mg/kg/injection, schedule: Q01DX Z (sc), vehicle: steriod suspending solution 91 % of control and 101 % of control | dose: 1000.0 mg/kg/injection, schedule: Q01DX Z (sc), vehicle: steriod suspending solution 100 % of control

CO[C@@H]1[C@@H](OC2OC(C)C(OC3CC(C)(O)C(OC(=O)CC(C)C)C(C)O3)C(N(C)C)C2O)[C@@H](CC=O)C[C@@H](C)C(=O)/C=C/C2O[C@H]2C[C@@H](C)OC(=O)C[C@H]1OC(C)=O (stereo partly drawn)
inactive: [1] 111 % of control and 120 % of control | dose: 150.0 mg/kg/injection, schedule: Q01DX010 (ip), vehicle: saline 111 % of control and 115 % of control | dose: 300.0 mg/kg/injection, schedule: Q01DX010 (ip), vehicle: saline 122 % of control

CS(=O)(=O)OCCCl
inactive: dose: 12.5 mg/kg/injection, schedule: Q01DX Z (ip), vehicle: carboxymethylcellulose (CMC) 98 % of control | dose: 18.8 mg/kg/injection, schedule: Q01DX010 (ip), vehicle: saline 105 % of control and 95 % of control | dose: 25.0 mg/kg/injection, schedule: Q01DX Z (ip), vehicle: carboxymethylcellulose (CMC) 110 % of control | [1] 110 % of control and 100 % of control | dose: 50.0 mg/kg/injection, schedule: Q01DX Z (ip), vehicle: carboxymethylcellulose (CMC) 98 % of control | dose: 75.0 mg/kg/injection, schedule: Q01DX010 (ip), vehicle: saline 105 % of control and 90 % of control | dose: 100.0 mg/kg/injection, schedule: Q01DX Z (ip), vehicle: carboxymethylcellulose (CMC) 94 % of control | dose: 2000.0 mg/kg/injection, schedule: Q01DX Z (ip), vehicle: carboxymethylcellulose (CMC) 103 % of control
